Residue numbers refer to the chain shown, from its start. Where two headings read alike, the source gives them in different places.
Key:
[1] = target: T1, human tyrosinase (hTYR^WT) (Homo sapiens, UniProt P14679); experiment: biochemical
T1 construct: gene TYR
T1 sequence (P14679 19-469): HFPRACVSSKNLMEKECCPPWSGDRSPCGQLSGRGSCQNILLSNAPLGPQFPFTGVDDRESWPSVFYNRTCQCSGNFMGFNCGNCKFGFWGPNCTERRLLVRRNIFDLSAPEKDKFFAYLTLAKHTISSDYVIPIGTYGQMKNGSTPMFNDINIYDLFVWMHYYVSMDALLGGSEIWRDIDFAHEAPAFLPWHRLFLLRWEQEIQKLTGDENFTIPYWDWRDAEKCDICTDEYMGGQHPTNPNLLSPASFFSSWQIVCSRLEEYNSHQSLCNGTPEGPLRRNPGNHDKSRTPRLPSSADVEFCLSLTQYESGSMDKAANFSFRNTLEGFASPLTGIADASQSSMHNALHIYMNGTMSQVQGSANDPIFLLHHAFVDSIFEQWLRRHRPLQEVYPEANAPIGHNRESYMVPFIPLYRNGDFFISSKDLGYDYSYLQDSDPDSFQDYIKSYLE

[2] = target: T1, human tyrosinase (hTYR^WT); experiment: activation of diphenol oxidase and monophenolase activity of purified enzyme; urea denaturation; type: biochemical
[3] = target: T2, human tyrosinase (hTYR^P406L) (Homo sapiens, UniProt P14679, P406L); experiment: activation of diphenol oxidase and monophenolase activity of purified enzyme; type: biochemical
T2 construct: gene TYR; recombinant intramelanosomal domain, P406L variant, His-tag
T2 sequence (P14679 19-469 P406L): T1 sequence (P14679 19-469) with P388L

Compound: COc1ccc(-c2cc(=S)ss2)cc1 [anethole trithione]
- IC50 ([1]; read-out: IC50): 1.45 µM

Compound: Cc1c(N)c(=O)n(-c2ccccc2)n1C [ampyrone, 4-Amino-2,3-dimethyl-1-phenyl-3-pyrazol-5-one]
- EC50 [2]: 670 µM
- EC50 [3]: 3570 µM

Compound: O=c1cc(-c2ccc(O)c(O)c2)oc2ccccc12 [3’,4’-dihydroxyflavone]
- IC50 ([1]; read-out: IC50): 9.22 µM

Compound: Oc1ccc(C2=Cc3ccc(O)cc3OC2)cc1 [idronoxil]
- IC50 [1]: 29.1 µM

Compound: Nc1nc2nc[nH]c2c(=S)[nH]1 [6-thioguanine]
- IC50 ([1]; read-out: IC50): 540 µM

Compound: CN(C)c1ccc(N=NS(=O)(=O)O)cc1 [fenaminosulf]
- IC50 ([1]; read-out: IC50): 8.12 µM

Compound: Oc1ccc(Nc2ccccc2)cc1 [4-anilinophenol]
- IC50 ([1]; read-out: IC50): 3.2 µM

Reference: article PMC13502167, “Ampyrone is a direct agonist of human tyrosinase and a potential therapeutic for hypopigmentation disorders” (JCI Insight, 2026)
